Source: publication PMC12084297, “Cytoplasmic connexin43-microtubule interactions promote glioblastoma stem-like cell maintenance and tumorigenicity” (Cell Death & Disease, 2025)

Legend:
α-tubulin = assay: Cellular thermal shift assay (CETSA), α-tubulin target engagement; format: binding, human; conditions: fresh VTC-037 GSC lysates, 3-fold dilutions 222.2-2.7 nM, 1 h, heat challenge 57 °C (Tagg(75)) 20 min, immunoblot, normalized to DMSO control
Experimental: (§1) For an initial determination of the melting profile of α- and β- tubulin, fresh lysates of GSCs prepared in non-denaturing buffer were dispensed into 96-well PCR plate in stem cell medium (approximately 10,000 cells/well/50 µl), and then subjected to temperature gradient (37–65 °C) for 20 min. Subsequently, centrifugation was performed at 14,000 rpm to sediment the unstable protein content. Supernatant was collected and SDS-PAGE gel was run, and immunodetection was performed to detect α- and β- tubulin using specific primary antibodies described above. A rabbit antibody against β-actin (Cell Signaling Technology; 4970) was used as negative control. Band intensities were quantified on LI-COR C-DiGit Blot Scanner, and subsequently Tagg(50) and Tagg(75) values were calculated for α- and β- tubulin. In a subsequent run, fresh lysates of GSCs were treated at various doses with 3-fold dilutions (222.2, 74.0, 24.7, 8.2 and 2.7 nM) of peptides JM2 and JM2-scrambled, together with DMSO as control, for 1 h. Samples were then subjected to heat challenge at 57 °C for 20 min, and unstable protein was removed by centrifugation step. Following an immunoblotting step, band intensities of the stable tubulin was quantified, and normalized to DMSO control. EC50 values of engagement for both peptide with α- and β- tubulin were subsequently calculated.

PDX GBM22 tumor = PDX GBM22 tumor growth in mouse flank; format: in vivo, mouse (athymic nude), human GBM22 cells; conditions: 300 μM intratumorally every day for 14 days, n = 7 mice per group
Experimental: Animal studies were approved by the Institutional Animal Care and Use Committee (IACUC) of Virginia Tech. Female athymic nude mice (Envigo) aged 6-8 weeks were used for the maintenance and propagation of PDX GBM22 cells. PDX GBM22 tumors were maintained by serial passage in nude mouse flanks as described previously. Briefly, tumors were harvested 14–18 days post-injection and glioblastoma cells were mechanically and enzymatically dissociated. […] After 2 days, tumors were measured and mice were randomly separated into three groups (7 mice per group), and vehicle/control (PBS), JM2-scrambled or JM2 were administered at 300 μM intratumorally every day for 14 days. Tumors were then measured by blinded investigators and harvested for analysis (see section below). Tumor volume was calculated using the formula (length × width^2)/2. […] After 7 days, tumors were measured and mice were randomly separated into three groups; vehicle/control (PBS), JM2-scrambled, and JM2 (3 mice per group). […] Tumor sizes were measured by electronic calipers at different times by blinded investigators, and tumor volume was calculated using the formula (length × width^2)/2.

LN229/GSC tumor = assay: TUNEL and H&E of LN229/GSC-derived tumor sections; format: in vivo, mouse (BALB/c nude), human LN229/GSC cells; conditions: LN229/GSC tumors, 300 µM intratumorally every other day, after 33 days
Experimental: Tumors were harvested, snap-frozen in Tissue-Tek® O.C.T. compound (Sakura), and stored at −80 °C until sectioning. […] sections were cut using a Leica CM1850 UV cryostat, placed onto Superfrost Plus^TM slides (Fisher Scientific) and fixed in −20 °C acetone for 5 minutes before air drying. Slides were stored at −80 °C prior to labeling. Tumors sections were then rehydrated in PBS for 5 min, permeabilized in 0.1% Triton X-100 in PBS for 1 h at room temperature, and washed four times with PBS (2 x quick, 2 × 5 min) prior to incubating with streptavidin conjugated to Alexa Fluor 647 (Thermo Fisher) diluted in high-salt buffer (0.5 M NaCl, 10 mM Hepes) for 30 min at room temperature. Tumor sections were then washed four times with high-salt buffer (2 x quick, 2 × 10 min), and twice with PBS (2 × 5 min) before using One-step TUNEL In Situ Apoptosis kit (Green Elab Fluor® 488; Elabscience), according to manufacturer’s instructions. Tumor sections were then washed in PBS (3 × 5 min), incubated with DAPI (Thermo Fisher) in PBS for 5 min, and washed again with PBS (4 × 5 min) before the slides were mounted using Prolong Gold Antifade (Thermo Fisher). GBM22-derived tumor sections were analyzed using fluorescence confocal microscopy on a Nikon NIE upright confocal microscope, while LN229/GSC-derived tumor sections were observed using LED illumination microscopy on a Revolve microscope. For hematoxylin and eosin (H&E) staining, tumor sections were stained using a Histo-Tek® SL Slide Stainer (Sakura), and observed using phase contrast microscopy on a Revolve microscope. Investigators were blinded for all image acquisition experiments.

β-actin = biological target: T1, β-actin (Homo sapiens, UniProt P60709); assay: Cellular thermal shift assay (CETSA), actin negative control; format: binding; conditions: VTC-037 GSC lysates, 57 °C, β-actin as negative control
T1 construct: fresh lysates of GSCs prepared in non-denaturing buffer; endogenous in cells; host or cells: VTC-037 patient-derived glioblastoma stem-like cells (lysate)
Experimental: as §1

VTC-034 GSCs = assay: Caspase 3/7 activity, VTC-034 GSCs; format: cell-based, human; conditions: VTC-034 adherent GSCs, 10, 50 or 100 μM, 48 h, Caspase-Glo 3/7
Experimental: Cells were plated in 96-well plates (2000–5000 cells per well) and treated the following day with TMZ (10, 50, or 100 μM), antennapedia, JM2-scrambled, or JM2 (10, 50, or 100 μM). After 4 days, cell viability was monitored following addition of MTS reagent (Promega) according to manufacturer’s instructions. The absorbance at 490 nm was measured using a SpectraMax i3 or iD3 microplate reader (Molecular Devices). For the caspase 3/7 activity assay, cells were plated in 96-well plates (2000 cells per well) and treated with TMZ or peptides as described above. The activity of caspase 3/7 was measured after 48 h using the Caspase-Glo® 3/7 assay (Promega) following the manufacturer’s instructions. Fold change of caspase 3/7 activity was defined as the ratio of caspase 3/7 luminescence in treated cells compared to controls.

β-tubulin = assay: Cellular thermal shift assay (CETSA), β-tubulin target engagement; format: binding, human; conditions: fresh VTC-037 GSC lysates, 3-fold dilutions 222.2-2.7 nM, 1 h, heat challenge 57 °C (Tagg(75)) 20 min, immunoblot, normalized to DMSO control
Experimental: as §1

| Sequence | EC50 (α-tubulin) [nM] | GBM22-derived tumor growth (PDX GBM22 tumor) | Cell death in tumor sections (TUNEL) (LN229/GSC tumor) | EC50 target engagement, actin (negative control) (β-actin) | Apoptosis induction (caspase 3/7 activity) (VTC-034 GSCs) | EC50 (β-tubulin) [nM] | Cell death in tumor sections (H&E) (LN229/GSC tumor) |
| --- | --- | --- | --- | --- | --- | --- | --- |
| GSDVFKRKFVDRKVG [JM2-scrambled, reference compound] | > 200 | observed GBM22-derived tumor formation | no significant cell death was observed | no EC50 was detected | inefficient in inducing apoptosis | > 200 | – |
| VFFKGVKDRVKGRSD [JM2] | 8.4 | did not detect any significant tumor growth | increased LN229-derived GSC death that positively correlated with the presence of JM2 within the tumors | no EC50 was detected | increased caspase 3/7 activity in these cells in a dose-dependent manner | 7.9 | further confirmed by H&E staining |
